From ChEMBL document CHEMBL4402577, “Discovery and Optimization of a Compound Series Active against Trypanosoma cruzi, the Causative Agent of Chagas Disease” (J Med Chem, 2020)
Converted amounts (≈) assume the structure as drawn. The source made the active and inactive calls. The calls are words filed in the database; no cut-off is given here.

Assays:
[1] = Intrinsic clearance in CD1 mouse liver microsomes at 0.5 uM measured up to 30 mins in presence of NADPH by UPLC-MSMS analysis; format: ADME, Microsome; conditions: 0.5 h
Trypanosoma cruzi [2] = assay: Antitrypanosomal activity against Trypanosoma cruzi Brazil strain trypomastigotes coexpressing luciferase infected in BALB/c mouse model of acute chagas disease assessed as reduction in parasite level at 30 mg/kg, ip treated 3 days post infection and measured on day 5 and 10; format: functional, organism-based
[3] = Fraction unbound in NMRI mouse plasma at 30 mg/kg, iv by UPLC-MS/MS analysis; format: ADME, organism-based
[4] = Selectivity ratio, EC50 for cytotoxicity against rat L6 cells to EC50 for antitrypanosomal activity against Trypanosoma cruzi Tulahuen strain C2C4 trypomastigotes infected in rat L6 cells; format: toxicity, cell-based; conditions: read-out: Ratio EC50
Trypanosoma cruzi [5] = assay: Antitrypanosomal activity against Trypanosoma cruzi Tulahuen strain C2C4 trypomastigotes infected in rat L6 cells incubated for 96 hrs by photometric method based assay; format: functional, organism-based; conditions: Tulahuen strain C2C4, L6, 96 h
Trypanosoma cruzi [6] = assay: Antitrypanosomal activity against Trypanosoma cruzi Brazil strain trypomastigotes coexpressing luciferase infected in BALB/c mouse model of acute chagas disease assessed as reduction in parasite level at 30 mg/kg, po treated 3 days post infection and measured on day 5 and 10; format: functional, organism-based
L6 = assay: Cytotoxicity against rat L6 cells incubated for 70 hrs by resazurin dye based assay; format: cell-based; conditions: L6, 70 h
[7] = Kinetic aqueous solubility of compound in DMSO by nephelometric analysis; format: physicochemical; conditions: read-out: Kinetic_solubility
[8] = Toxicity in ip dosed BALB/c mouse model of acute chagas disease assessed as maximum tolerated dose; format: organism-based; conditions: in vivo

Row | intrinsic clearance [1] [mL/min/g] | EC50 (Trypanosoma cruzi [5]) [µM] | EC90 (Trypanosoma cruzi [5]) [µg/mL] | solubility kinetic [7] [µM] | SMILES | Activity (Trypanosoma cruzi [2]) | fraction unbound [3] | selectivity ratio [4] | Activity (Trypanosoma cruzi [6]) | EC50 (L6) [µM] | MTD [8] [mg/kg]
1 | 3.2 | 0.026 | 0.038 (≈ 0.111 µM) | 73 (≈ 25.1 µg/mL) | CC(=O)Nc1ccc2[nH]c(=O)n([C@H]3CC[C@H](C(C)C)CC3)c(=O)c2c1 | Active | 0.028 | 150 | Active | 3.8 | 
2 | 12 | 0.085 |  | 73 (≈ 24 µg/mL) | CC[C@H]1CC[C@@H](n2c(=O)[nH]c3ccc(NC(C)=O)cc3c2=O)CC1 |  |  | 460 |  | 39 | 
3 | 2.4 | 0.058 |  | 115 (≈ 37.9 µg/mL) | CC[C@H]1CC[C@H](n2c(=O)[nH]c3ccc(NC(C)=O)cc3c2=O)CC1 |  |  | 240 |  | 14 | 
4 | 0.5 | 0.3 |  | 22 (≈ 7.27 µg/mL) | CC[C@H]1CC[C@H](n2c(=O)[nH]c3ncc(NC(C)=O)cc3c2=O)CC1 |  |  | 720 |  | 215 | 
5 | 19 | 0.02 |  | 102 (≈ 35 µg/mL) | CCC[C@H]1CC[C@@H](n2c(=O)[nH]c3ccc(NC(C)=O)cc3c2=O)CC1 |  |  | 700 |  | 14 | 
6 | 7.2 | 6.4 |  | > 270 | CC(=O)Nc1ccc2[nH]c(=O)n([C@H]3CO[C@@H](C(C)(C)C)OC3)c(=O)c2c1 |  |  | 29 |  | 183 | 
7 | 2.7 | 4.3 |  | 180 (≈ 66.5 µg/mL) | CC(=O)Nc1ccc2[nH]c(=O)n([C@H]3CC[C@@H](C(F)(F)F)CC3)c(=O)c2c1 |  |  | 4.2 |  | 18 | 
8 | 1.7 | 1.2 |  | < 17 | CC[C@H]1CC[C@@H](n2c(=O)[nH]c3ncc(N)cc3c2=O)CC1 |  |  | 210 |  | 250 | 
9 | 5.2 | 0.33 | 1.2 (≈ 4.18 µM) | > 350 | CC[C@H]1CC[C@@H](n2c(=O)[nH]c3ccc(N)cc3c2=O)CC1 |  |  | 160 |  | 52 | 
10 | 3.7 | 0.18 |  | 128 (≈ 42.2 µg/mL) | CC(=O)Nc1ccc2[nH]c(=O)n(C3CCC(C)(C)CC3)c(=O)c2c1 |  |  | 67 |  | 12 | 
11 | 1.5 | 0.015 |  | 47 (≈ 16.1 µg/mL) | CCC[C@H]1CC[C@H](n2c(=O)[nH]c3ccc(NC(C)=O)cc3c2=O)CC1 |  |  | 730 |  | 11 | 
12 | 0.9 | 0.34 |  | 55 (≈ 15.9 µg/mL) | CC[C@H]1CC[C@H](n2c(=O)[nH]c3ncc(N)cc3c2=O)CC1 |  |  | 150 |  | 51 | 

Row | SMILES | intrinsic clearance [1] [mL/min/g] | EC50 (Trypanosoma cruzi [5]) [µM] | EC90 (Trypanosoma cruzi [5]) [µg/mL] | solubility kinetic [7] [µM] | Activity (Trypanosoma cruzi [2]) | fraction unbound [3] | selectivity ratio [4] | Activity (Trypanosoma cruzi [6]) | EC50 (L6) [µM] | MTD [8] [mg/kg]
13 | CC(C)(C)[C@H]1CC[C@H](n2c(=O)[nH]c3ccc(N)cc3c2=O)CC1 | 2 | 0.063 |  |  | inactive | 0.011 | 330 | inactive | 21 | 30
